According to PubChem BioAssay AID1745844 (Carcinogenic Potency Database (CPDB), 2022):
The source made the active and inactive calls. How the calls were made is not given here.

Test system: rodent lifetime carcinogenesis bioassay, tumor incidence TD50
Assay: carcinogenic potency in animals, long-term in vivo studies, CPDB compilation (AID 1745844)

Question: Which carcinogen call (mouse, strain B6C3F1, females, in feed, site: any site (literature study), lesion: benign tumor, dosed 104 weeks, study length 105 weeks) does the source give for `Cc1ccc(/C(=C\CN2CCCC2)c2ccccn2)cc1` here?
Answer: negative (inactive)

Question: What about the carcinogen call (mouse, strain B6C3F1, females, in feed, site: any site (literature study), lesion: malignant tumor, dosed 104 weeks, study length 105 weeks) of the same compound?
Answer: negative (inactive)

Question: What about the carcinogen call (mouse, strain B6C3F1, females, in feed, site: any site (literature study), lesion: several types, types named in the paper, dosed 104 weeks, study length 105 weeks) of the same compound?
Answer: negative (inactive)

Question: And the carcinogen call (mouse, strain B6C3F1, females, in feed, site: liver, lesion: hepatocellular adenoma, dosed 104 weeks, study length 105 weeks)?
Answer: negative (inactive)

Question: What about the carcinogen call (mouse, strain B6C3F1, females, in feed, site: liver, lesion: hepatocellular carcinoma, dosed 104 weeks, study length 105 weeks) of the same compound?
Answer: negative (inactive)

Question: And the carcinogen call (mouse, strain B6C3F1, females, in feed, site: liver, lesion: several types, types named in the paper, dosed 104 weeks, study length 105 weeks)?
Answer: negative (inactive)

Question: And the carcinogen call (mouse, strain B6C3F1, females, in feed, site: lung, lesion: several types, types named in the paper, dosed 104 weeks, study length 105 weeks)?
Answer: negative (inactive)

Question: And the carcinogen call (mouse, strain B6C3F1, males, in feed, site: any site (literature study), lesion: benign tumor, dosed 104 weeks, study length 105 weeks)?
Answer: negative (inactive)

Question: And the carcinogen call (mouse, strain B6C3F1, males, in feed, site: any site (literature study), lesion: malignant tumor, dosed 104 weeks, study length 105 weeks)?
Answer: negative (inactive)

Question: What about the carcinogen call (mouse, strain B6C3F1, males, in feed, site: any site (literature study), lesion: several types, types named in the paper, dosed 104 weeks, study length 105 weeks) of the same compound?
Answer: negative (inactive)

Question: What about the TD50 (mouse, strain B6C3F1, males, in feed, site: liver, lesion: hepatocellular adenoma, dosed 104 weeks, study length 105 weeks) of the same compound?
Answer: 2330 mg/kg/day (inactive)

Question: And the carcinogen call (mouse, strain B6C3F1, males, in feed, site: liver, lesion: hepatocellular carcinoma, dosed 104 weeks, study length 105 weeks)?
Answer: negative (inactive)

Question: What about the TD50 (mouse, strain B6C3F1, males, in feed, site: liver, lesion: several types, types named in the paper, dosed 104 weeks, study length 105 weeks) of the same compound?
Answer: 2750 mg/kg/day (inactive)

Question: And the carcinogen call (mouse, strain B6C3F1, males, in feed, site: lung, lesion: several types, types named in the paper, dosed 104 weeks, study length 105 weeks)?
Answer: negative (inactive)

Question: What about the carcinogen call (rat, strain Fischer 344, females, in feed, site: any site (literature study), lesion: benign tumor, dosed 103 weeks, study length 104 weeks) of the same compound?
Answer: negative (inactive)

Question: What about the carcinogen call (rat, strain Fischer 344, females, in feed, site: any site (literature study), lesion: malignant tumor, dosed 103 weeks, study length 104 weeks) of the same compound?
Answer: negative (inactive)

Question: And the carcinogen call (rat, strain Fischer 344, females, in feed, site: any site (literature study), lesion: several types, types named in the paper, dosed 103 weeks, study length 104 weeks)?
Answer: negative (inactive)

Question: What about the carcinogen call (rat, strain Fischer 344, females, in feed, site: liver, lesion: hepatocellular adenoma, dosed 103 weeks, study length 104 weeks) of the same compound?
Answer: negative (inactive)

Question: What about the carcinogen call (rat, strain Fischer 344, females, in feed, site: liver, lesion: hepatocellular carcinoma, dosed 103 weeks, study length 104 weeks) of the same compound?
Answer: negative (inactive)

Question: And the TD50 (rat, strain Fischer 344, males, in feed, site: any site (literature study), lesion: benign tumor, dosed 103 weeks, study length 104 weeks)?
Answer: 1170 mg/kg/day (inactive)

Question: What about the carcinogen call (rat, strain Fischer 344, males, in feed, site: any site (literature study), lesion: malignant tumor, dosed 103 weeks, study length 104 weeks) of the same compound?
Answer: negative (inactive)

Question: And the carcinogen call (rat, strain Fischer 344, males, in feed, site: any site (literature study), lesion: several types, types named in the paper, dosed 103 weeks, study length 104 weeks)?
Answer: negative (inactive)

Question: And the carcinogen call (rat, strain Fischer 344, males, in feed, site: liver, lesion: hepatocellular adenoma, dosed 103 weeks, study length 104 weeks)?
Answer: negative (inactive)

Question: And the carcinogen call (rat, strain Fischer 344, males, in feed, site: liver, lesion: hepatocellular carcinoma, dosed 103 weeks, study length 104 weeks)?
Answer: negative (inactive)

Question: `OC[C@H]1O[C@H](O[C@]2(CCl)O[C@H](CCl)[C@@H](O)[C@@H]2O)[C@H](O)[C@@H](O)[C@H]1Cl` was tested. Which carcinogen call (mouse, strain Charles River CD1, females, in feed, site: any site (literature study), lesion: several types, types named in the paper, dosed 104 weeks, study length 104 weeks) did it give?
Answer: negative (inactive)

Question: What about the carcinogen call (mouse, strain Charles River CD1, females, in feed, site: liver, lesion: hepatocellular adenoma, dosed 104 weeks, study length 104 weeks) of the same compound?
Answer: negative (inactive)

Question: And the TD50 (mouse, strain Charles River CD1, females, in feed, site: liver, lesion: hepatocellular carcinoma, dosed 104 weeks, study length 104 weeks)?
Answer: 98200 mg/kg/day (inactive)

Question: And the carcinogen call (mouse, strain Charles River CD1, females, in feed, site: lung, lesion: adenoma, dosed 104 weeks, study length 104 weeks)?
Answer: negative (inactive)

Question: And the carcinogen call (mouse, strain Charles River CD1, females, in feed, site: lung, lesion: carcinoma, dosed 104 weeks, study length 104 weeks)?
Answer: negative (inactive)

Question: And the carcinogen call (mouse, strain Charles River CD1, males, in feed, site: any site (literature study), lesion: several types, types named in the paper, dosed 104 weeks, study length 104 weeks)?
Answer: negative (inactive)

Question: And the carcinogen call (mouse, strain Charles River CD1, males, in feed, site: liver, lesion: hepatocellular adenoma, dosed 104 weeks, study length 104 weeks)?
Answer: negative (inactive)

Question: What about the carcinogen call (mouse, strain Charles River CD1, males, in feed, site: liver, lesion: hepatocellular carcinoma, dosed 104 weeks, study length 104 weeks) of the same compound?
Answer: negative (inactive)

Question: What about the TD50 (mouse, strain Charles River CD1, males, in feed, site: lung, lesion: adenoma, dosed 104 weeks, study length 104 weeks) of the same compound?
Answer: 35100 mg/kg/day (inactive)

Question: And the carcinogen call (mouse, strain Charles River CD1, males, in feed, site: lung, lesion: carcinoma, dosed 104 weeks, study length 104 weeks)?
Answer: negative (inactive)

Question: Which TD50 (mouse, strain Swiss, females, i.p., site: all sites, lesion: lymphosarcoma, dosed 26 weeks, study length 61 weeks) does the source give for `CN(C)N=Nc1nc[nH]c1C(N)=O` here?
Answer: 8 mg/kg/day

Question: And the TD50 (mouse, strain Swiss, females, i.p., site: any site (literature study), lesion: benign tumor, dosed 26 weeks, study length 61 weeks)?
Answer: 7.03 mg/kg/day

Question: What about the TD50 (mouse, strain Swiss, females, i.p., site: any site (literature study), lesion: malignant tumor, dosed 26 weeks, study length 61 weeks) of the same compound?
Answer: 0.807 mg/kg/day

Question: And the TD50 (mouse, strain Swiss, females, i.p., site: lung, lesion: several types, types named in the paper, dosed 26 weeks, study length 61 weeks)?
Answer: 0.595 mg/kg/day

Question: What about the TD50 (mouse, strain Swiss, females, i.p., site: spleen, lesion: hemangioendothelioma, dosed 26 weeks, study length 61 weeks) of the same compound?
Answer: 14.5 mg/kg/day

Question: What about the TD50 (mouse, strain Swiss, females, i.p., site: uterus, lesion: adenocarcinoma, dosed 26 weeks, study length 61 weeks) of the same compound?
Answer: 3.2 mg/kg/day

Question: And the TD50 (mouse, strain Swiss, males, i.p., site: all sites, lesion: lymphatic leukemia, dosed 26 weeks, study length 78 weeks)?
Answer: 13 mg/kg/day

Question: And the TD50 (mouse, strain Swiss, males, i.p., site: all sites, lesion: lymphosarcoma, dosed 26 weeks, study length 78 weeks)?
Answer: 16.1 mg/kg/day

Question: What about the TD50 (mouse, strain Swiss, males, i.p., site: any site (literature study), lesion: benign tumor, dosed 26 weeks, study length 78 weeks) of the same compound?
Answer: 10.6 mg/kg/day

Question: And the TD50 (mouse, strain Swiss, males, i.p., site: any site (literature study), lesion: malignant tumor, dosed 26 weeks, study length 78 weeks)?
Answer: 1.54 mg/kg/day

Question: What about the TD50 (mouse, strain Swiss, males, i.p., site: any site (literature study), lesion: several types, types named in the paper, dosed 26 weeks, study length 78 weeks) of the same compound?
Answer: 0.813 mg/kg/day

Question: What about the TD50 (mouse, strain Swiss, males, i.p., site: liver, lesion: several types, types named in the paper, dosed 26 weeks, study length 78 weeks) of the same compound?
Answer: 98.8 mg/kg/day

Question: And the TD50 (mouse, strain Swiss, males, i.p., site: lung, lesion: several types, types named in the paper, dosed 26 weeks, study length 78 weeks)?
Answer: 2.57 mg/kg/day

Question: What about the TD50 (mouse, strain Swiss, males, i.p., site: spleen, lesion: several types, types named in the paper, dosed 26 weeks, study length 78 weeks) of the same compound?
Answer: 5.17 mg/kg/day

Question: What about the TD50 (rat, strain Sprague-Dawley, females, in feed, site: mammary gland, lesion: adenofibroma, dosed 46 weeks, study length 60 weeks) of the same compound?
Answer: 0.71 mg/kg/day

Question: What about the TD50 (rat, strain Sprague-Dawley, females, in feed, site: thymus gland, lesion: lymphosarcoma, dosed 46 weeks, study length 60 weeks) of the same compound?
Answer: 4.21 mg/kg/day

Question: What about the TD50 (rat, strain Sprague-Dawley, females, in feed, site: uterus, lesion: leiomyosarcoma, dosed 46 weeks, study length 60 weeks) of the same compound?
Answer: 6.55 mg/kg/day

Question: With `Cc1ccc(C)c(C)c1` as the compound, how does the TD50 (rat, strain Sprague-Dawley, females, by gavage, site: any site (literature study), lesion: malignant tumor, dosed 104 weeks, study length 123 weeks) read?
Answer: 14300 mg/kg/day

Question: And the TD50 (rat, strain Sprague-Dawley, males, by gavage, site: Zymbal's gland, lesion: carcinoma, dosed 104 weeks, study length 123 weeks)?
Answer: 18000 mg/kg/day

Question: What about the TD50 (rat, strain Sprague-Dawley, males, by gavage, site: any site (literature study), lesion: malignant tumor, dosed 104 weeks, study length 123 weeks) of the same compound?
Answer: 13900 mg/kg/day

Question: And the TD50 (rat, strain Sprague-Dawley, males, by gavage, site: any site (literature study), lesion: several types, types named in the paper, dosed 104 weeks, study length 123 weeks)?
Answer: 1940 mg/kg/day

Question: And the TD50 (rat, strain Sprague-Dawley, males, by gavage, site: ear duct, lesion: carcinoma, dosed 104 weeks, study length 123 weeks)?
Answer: 18300 mg/kg/day

Question: What about the TD50 (rat, strain Sprague-Dawley, males, by gavage, site: head, lesion: carcinoma, dosed 104 weeks, study length 123 weeks) of the same compound?
Answer: 4350 mg/kg/day

Question: And the TD50 (rat, strain Sprague-Dawley, males, by gavage, site: nasal cavity, lesion: esthesioneuroepithelioma, dosed 104 weeks, study length 123 weeks)?
Answer: 18300 mg/kg/day

Question: And the TD50 (rat, strain Sprague-Dawley, males, by gavage, site: oral cavity, lesion: carcinoma, dosed 104 weeks, study length 123 weeks)?
Answer: 18300 mg/kg/day
